In PubChem BioAssay AID1963852 (Molecular Pharmacology Branch, DTP, NCI, 2024):
“And” between values parts separate entries of the source, which are not always exact repeats. Equal values may be shown once.

Tested on: 282377-053-R-J1-PDC complex spheroid viability
Assay: Anticancer human tumor 282377-053-R-J1-PDC patient-derived colon adenocarcinoma cell line growth inhibition [POLQ]
Conditions: for viability, T/C: stronger effect = lower value
Method: Multicellular complex tumor spheroid response to Polymerase (POL) inhibitors (novobiocin, ART-558, RP6685) in combination with a variety of drugs and investigational agents in selected tumor cell lines
The POL inhibitors (novobiocin, ART-558, and RP6685) were evaluated both individually and in combination with standard of care and investigational anticancer small molecules within a complex spheroid model of solid tumors. . Complex spheroids include a stromal component modeled by human endothelial cells (HUVEC) and fibroblasts modeled by human mesenchymal stem cells (MSCs). The concentration ranges selected for each drug and investigational agent were based upon clinically achievable concentrations if the clinical Cmax of the agent was known.
Compounds. The drugs and investigational agents: novobiocin (NSC847541), ART-558 (NSC835418), RP-6685 (NSC848927), peposertib (NSC802822), ceralasertib (NSC780249), elimusertib (NSC800525), camonsertib (NSC841442), AZD-1390 (NSC803789), olaparib (NSC753686), talazoparib (NSC767125), rucaparib (NSC756644), sotorasib (NSC818433), MRTX-1133 (NSC836407), SN-38 (NSC673596), topotecan (NSC609699), epotoside (NSC141540), doxorubicin (NSC123127), gemcitabine (NSC613327), 5-fluorouracil (NSC19893), paclitaxel (NSC125973), vemurafenib (NSC761431), MSA-2 (NSC828583), SN-011 (NSC837082), adavosertib (NSC754352), prexasertib (NSC758257), carboplatin (NSC241240) and oxaliplatin (NSC266046), were obtained from the National Cancer Institute (NCI) Developmental Therapeutics Program Chemical Repository (21). The FDA-approved anticancer drug set is available from the Developmental Therapeutics Program at https://dtp.cancer.gov/organization/dscb/obtaining/. […] The stock solutions were prepared in dimethyl sulfoxide (DMSO, Sigma-Aldrich, St. Louis, MO, cat. D2650), except for the platinum compounds which were prepared in saline (Quality Biological, Gaithersburg, MD, cat. 114-055-101), at 800-fold the tested concentration and stored at -70 degrees C prior to their use. All drugs and investigational agents were tested over a range starting from a high concentration at or near the clinical Cmax and decreasing in half-log increments. If the clinical Cmax for an agent had not been determined, the highest concentration tested was 10 microM, except for SN-38, which was tested at a high concentration of 1 microM.
Cell Culture. All cells were maintained in an incubator at 37 degrees C and 5% CO2 with 95% humidity. The PDC lines were cultured according to standard operating procedures established by the NCI PDMR (https://pdmr.cancer.gov). Table 3 of the manuscript, lists the cell lines along with the number of the three cell types plated to form the mct-spheroids and media for tumor cell growth. After thawing, all PDC lines, except 997537-175-T-J1-PDC and 415267-285-R-J2-PDC, were cultured in Matrigel-coated flasks prepared with a working solution of 1X Ham's F-12 nutrient mix, without supplementation (Thermo Fisher Scientific, cat. 11765054), 100 U/mL penicillin-streptomycin (Thermo Fisher Scientific, cat. 15140122), and 2.5% Matrigel (Corning Inc., Corning, NY, cat. 354248) for the first three passages. The two PDC lines 997537-175-T-J1-PDC and 415267-285-R-J2-PDC were cultured on uncoated flasks. The 857933-349-R-J2-PDC line was cultured in 6C/Colon 1B media containing advanced DMEM/F-12 (Thermo Fisher Scientific, cat. 12634028), 10 mM HEPES (Thermo Fisher Scientific, cat. 15630080), 1X GlutaMAX supplement (Thermo Fisher Scientific, cat. 35050061), 0.1 mg/mL primocin (InvivoGen, San Diego, CA, cat. ant-pm-2), 10% defined fetal bovine serum, heat inactivated (HyClone Laboratories Inc., Logan, UT, cat. SH30070.03HI), 50% L-WRN conditioned media (ATCC, cat. CRL-3276), 1.25 mM N-Acetyl-L-cysteine (Sigma-Aldrich, cat. A9165), 10 mM nicotinamide (Sigma-Aldrich, cat. N0636), 1X B-27 supplement (Thermo Fisher Scientific, cat. 17504044), 1X N-2 supplement (Thermo Fisher Scientific, cat. […]

[1] = curve of first compound, second compound 0.0316 µM
[2] = curve of first compound, second compound 0.1 µM
[3] = curve of first compound, second compound 0.316 µM
[4] = curve of first compound, second compound 1 µM
[5] = curve of first compound, second compound 3.16 µM
[6] = curve of first compound, second compound 10 µM
[7] = second compound 0.0316 µM, first compound 0.0316 µM
[8] = second compound 0.0316 µM, first compound 0.1 µM
[9] = second compound 0.0316 µM, first compound 0.316 µM
[10] = second compound 0.0316 µM, first compound 1 µM
[11] = second compound 0.0316 µM, first compound 3.16 µM
[12] = second compound 0.0316 µM, first compound 10 µM
[13] = second compound 0.1 µM, first compound 0.0316 µM
[14] = second compound 0.1 µM, first compound 0.1 µM
[15] = second compound 0.1 µM, first compound 0.316 µM
[16] = second compound 0.1 µM, first compound 1 µM
[17] = second compound 0.1 µM, first compound 3.16 µM
[18] = second compound 0.1 µM, first compound 10 µM
[19] = second compound 0.316 µM, first compound 0.0316 µM
[20] = second compound 0.316 µM, first compound 0.1 µM
[21] = second compound 0.316 µM, first compound 0.316 µM
[22] = second compound 0.316 µM, first compound 1 µM
[23] = second compound 0.316 µM, first compound 3.16 µM
[24] = second compound 0.316 µM, first compound 10 µM
[25] = second compound 1 µM, first compound 0.0316 µM
[26] = second compound 1 µM, first compound 0.1 µM
[27] = second compound 1 µM, first compound 0.316 µM
[28] = second compound 1 µM, first compound 1 µM
[29] = second compound 1 µM, first compound 3.16 µM
[30] = second compound 1 µM, first compound 10 µM
[31] = second compound 3.16 µM, first compound 0.0316 µM
[32] = second compound 3.16 µM, first compound 0.1 µM
[33] = second compound 3.16 µM, first compound 0.316 µM
[34] = second compound 3.16 µM, first compound 1 µM
[35] = second compound 3.16 µM, first compound 3.16 µM
[36] = second compound 3.16 µM, first compound 10 µM
[37] = second compound 10 µM, first compound 0.0316 µM
[38] = second compound 10 µM, first compound 0.1 µM
[39] = second compound 10 µM, first compound 0.316 µM
[40] = second compound 10 µM, first compound 1 µM
[41] = second compound 10 µM, first compound 3.16 µM
[42] = second compound 10 µM, first compound 10 µM
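Further: spheroids exposed to compounds for seven days.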
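Wherever viability, T/C is given: 100% = DMSO vehicle control viability.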

For `COc1cc(C2c3cc4c(cc3C(OC3OC5COC(C)OC5C(O)C3O)C3COC(=O)C23)OCO4)cc(OC)c1O` (stereo unspecified), the viability, T/C (compound 0.0316 µM) was 86.7% and 90% and 76.8%, the viability, T/C (compound 0.1 µM) was 108% and 96.2% and 104% and the viability, T/C (compound 0.316 µM) was 94.2% and 108% and 83%. For the same compound, the viability, T/C (compound 1 µM) was 124% and 104% and 96.8%, the viability, T/C (compound 3.16 µM) was 82.7% and 105% and 70.8% and the viability, T/C (compound 10 µM) was 58% and 81.8% and 50.9%. For the same compound, the IC50 (curve of compound) was greater than 10000 nM.

With `CCCS(=O)(=O)Nc1ccc(F)c(C(=O)c2c[nH]c3ncc(-c4ccc(Cl)cc4)cc23)c1F` + COC1C(OC(N)=O)C(O)C(Oc2ccc3c(O)c(NC(=O)c4ccc(O)c(CC=C(C)C)c4)c(=O)oc3c2C)OC1(C)C the IC50 [1] was 3550 nM, the IC50 [2] was 4030 nM and the IC50 [3] was 3460 nM. It also gave an IC50 [4] of 3450 nM, an IC50 [5] of 3830 nM and an IC50 [6] of 2370 nM. It also gave a viability, T/C [7] of 91.9%, a viability, T/C [8] of 77.1% and a viability, T/C [9] of 81.1%. It also gave a viability, T/C [10] of 56.5%, a viability, T/C [11] of 59.4% and a viability, T/C [12] of 33.2%. It also gave a viability, T/C [13] of 86.6%, a viability, T/C [14] of 76.1% and a viability, T/C [15] of 65.7%. It also gave a viability, T/C [16] of 68.4%, a viability, T/C [17] of 60% and a viability, T/C [18] of 29.9%. The viability, T/C [19] was 89.8%, the viability, T/C [20] was 65.5% and the viability, T/C [21] was 63.5%. For the same compound, the viability, T/C [22] was 65.3%, the viability, T/C [23] was 58.4% and the viability, T/C [24] was 32.9%. For the same compound, the viability, T/C [25] was 108%, the viability, T/C [26] was 63.7% and the viability, T/C [27] was 80.9%. For the same compound, the viability, T/C [28] was 58.5%, the viability, T/C [29] was 66.5% and the viability, T/C [30] was 30.6%. It also gave a viability, T/C [31] of 93.1%, a viability, T/C [32] of 82% and a viability, T/C [33] of 68.7%. It also gave a viability, T/C [34] of 54.9%, a viability, T/C [35] of 68.4% and a viability, T/C [36] of 33.2%. It also gave a viability, T/C [37] of 89.1%, a viability, T/C [38] of 73.5% and a viability, T/C [39] of 73.1%. For the same compound, the viability, T/C [40] was 73.3%, the viability, T/C [41] was 42.2% and the viability, T/C [42] was 38%.

In the case of `Nc1ccn(C2OC(CO)C(O)C2(F)F)c(=O)n1` (stereo unspecified) + COC1C(OC(N)=O)C(O)C(Oc2ccc3c(O)c(NC(=O)c4ccc(O)c(CC=C(C)C)c4)c(=O)oc3c2C)OC1(C)C, the IC50 [1] is reported as 83.7 nM, the IC50 [2] is reported as 138 nM and the IC50 [3] is reported as 123 nM. The IC50 [4] was 114 nM, the IC50 [5] was 90.9 nM and the IC50 [6] was 95.6 nM. It also gave a viability, T/C [7] of 80.7%, a viability, T/C [8] of 41.5% and a viability, T/C [9] of 28.9%. For the same compound, the viability, T/C [10] was 27.2%, the viability, T/C [11] was 22.7% and the viability, T/C [12] was 11.6%. It also gave a viability, T/C [13] of 79.7%, a viability, T/C [14] of 60.3% and a viability, T/C [15] of 23%. It also gave a viability, T/C [16] of 26%, a viability, T/C [17] of 20.7% and a viability, T/C [18] of 13.5%. It also gave a viability, T/C [19] of 107%, a viability, T/C [20] of 51.5% and a viability, T/C [21] of 32.5%. For the same compound, the viability, T/C [22] was 27.8%, the viability, T/C [23] was 21.1% and the viability, T/C [24] was 12.5%. It also gave a viability, T/C [25] of 93%, a viability, T/C [26] of 48% and a viability, T/C [27] of 32%. The viability, T/C [28] was 33.3%, the viability, T/C [29] was 21.8% and the viability, T/C [30] was 10.6%. The viability, T/C [31] was 76.5%, the viability, T/C [32] was 47.1% and the viability, T/C [33] was 27.9%. The viability, T/C [34] was 27.8%, the viability, T/C [35] was 21.3% and the viability, T/C [36] was 11.1%. For the same compound, the viability, T/C [37] was 90.2%, the viability, T/C [38] was 47.2% and the viability, T/C [39] was 28.1%. The viability, T/C [40] was 32.7%, the viability, T/C [41] was 24% and the viability, T/C [42] was 13.8%.
